Data taken from ChEMBL document CHEMBL1201862, “PubChem BioAssay data set” (2004).
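Protocol summary: plate cells (96-well), add compound at 5 concentrations, incubate 48 h, interpolate endpoints linearly. Here, GI50 denotes the concentration required for 50% inhibition of growth.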 Activity calls are given as the source filed them. Cut-off read from the data, not from the text of the source: active = GI50 up to about 1.1 µM and inactive = higher.

Key:
Test in all cases: inhibition of tumour cell growth, NCI panel, 48 h
SNB-78 = system: SNB-78
DLD-1 = system: DLD-1
RXF 631 = system: RXF 631
HOP-18 = system: HOP-18
DMS-273 = system: DMS-273
NCI/ADR-RES = system: NCI/ADR-RES
T47D = system: T47D
MDA-MB-231 = system: MDA-MB-231
BT-549 = system: BT-549

SMILES | GI50 (SNB-78) | GI50 (DLD-1) | GI50 (RXF 631) | GI50 (HOP-18) | GI50 (DMS-273) | GI50 (NCI/ADR-RES) | GI50 (T47D) | GI50 (MDA-MB-231) | GI50 (BT-549)
Cc1cc(=O)n(-c2c(C)cccc2Cl)c(/C=C(\O)c2ccncc2)n1 | > 100 µM (inactive) | > 100 µM (inactive) | > 100 µM (inactive) | > 100 µM (inactive) | > 100 µM (inactive) | – | – | – | –
CC1(C)Cc2c(oc3ncnc(N)c23)CS1 | > 100 µM (inactive) | > 100 µM (inactive) | > 100 µM (inactive) | – | > 100 µM (inactive) | – | – | – | –
CC1=C(NC(=O)C(=O)NNC(=O)c2ccncc2)C(=O)c2ccccc2C1=O | 14.5 µM (inactive) | 13.8 µM (inactive) | 40.4 µM (inactive) | 10.5 µM (inactive) | 5.48 µM (inactive) | – | – | – | –
CCOC(=O)C(=O)Nc1ccccc1C | > 100 µM (inactive) | > 100 µM (inactive) | > 100 µM (inactive) | – | – | – | – | – | –
COc1cc([C@@H]2c3cc4c(cc3[C@@H](NCc3cccc(C#N)c3)C3COC(=O)[C@@H]32)OCO4)cc(OC)c1O (stereo partly specified) | – | 1.7 µM (inactive) | 1.29 µM (inactive) | > 100 µM (inactive) | 0.349 µM (active) | – | – | – | –
CC1=C2C(=CC(C)(CO)C2O)C(=O)C(C)(O)C12CC2 (stereo unspecified) | 0.00144 µM (active) | 0.00895 µM (active) | 0.00274 µM (active) | 0.007 µM (active) | 0.00162 µM (active) | – | – | – | –
Cc1cccc(N(CC(=O)O)S(=O)(=O)c2ccccc2)c1 | – | > 100 µM (inactive) | > 100 µM (inactive) | > 100 µM (inactive) | > 100 µM (inactive) | – | – | – | –
O=C1C(Cl)=C(Cl)C(=O)N1c1cccc(C(F)(F)F)c1 | > 100 µM (inactive) | > 93.3 µM (inactive) | > 100 µM (inactive) | > 100 µM (inactive) | > 100 µM (inactive) | – | – | – | –
CC(C)c1ccc(Cc2ccc(C(C)C)c(NC(=O)C(=O)Cc3cnc4ccccc4n3)c2C(C)C)c(C(C)C)c1NC(=O)C(=O)Cc1cnc2ccccc2n1 | > 100 µM (inactive) | > 100 µM (inactive) | > 100 µM (inactive) | – | – | – | – | – | –
O=C(O)c1ccc(Nc2nc3nn(Cc4ccccc4)cc3c(=O)s2)cc1 | > 100 µM (inactive) | > 100 µM (inactive) | – | 74.8 µM (inactive) | > 100 µM (inactive) | – | – | – | –
CC(C)c1cccc(C(C)C)c1NC(=O)CCC(=O)NN | > 100 µM (inactive) | > 100 µM (inactive) | – | > 100 µM (inactive) | 61.5 µM (inactive) | – | – | – | –
CC[P+](C)(Cc1ccccc1)c1ccccc1 (stereo unspecified) | > 100 µM (inactive) | > 100 µM (inactive) | – | > 100 µM (inactive) | > 100 µM (inactive) | – | – | – | –
[N-]=[N+]=C1C(=O)C2CC3CC(C2)CC1C3 | > 100 µM (inactive) | > 100 µM (inactive) | – | > 100 µM (inactive) | > 100 µM (inactive) | – | – | – | –
OCC(O)C(OC1OC(CO)C(O)C(O)C1O)c1nn(-c2ccc(Cl)cc2)c2nc3cc(Cl)ccc3nc12 (stereo unspecified) | > 100 µM (inactive) | > 100 µM (inactive) | > 100 µM (inactive) | – | – | – | – | – | –
O=c1c(O)c(-c2ccc(O)c(O)c2)oc2cc(O)ccc12 [FISETIN] | 20.1 µM (inactive) | 20.2 µM (inactive) | – | 21.2 µM (inactive) | 11.5 µM (inactive) | – | – | – | –
O=C1C=C(c2ccccc2)NC1(c1ccccc1)c1cc(-c2ccccc2)[nH]c1-c1ccccc1 (stereo unspecified) | > 100 µM (inactive) | > 100 µM (inactive) | > 100 µM (inactive) | > 100 µM (inactive) | > 100 µM (inactive) | – | – | – | –
Cc1c(C(=O)/C=C/c2ccc3c(c2)OCO3)[n+]([O-])c2ccccc2[n+]1[O-] | 36.2 µM (inactive) | 38.6 µM (inactive) | 53.6 µM (inactive) | 86.7 µM (inactive) | 22.6 µM (inactive) | – | – | – | –
COC(=O)NC12CC3CC(CC(F)(C3)C1)C2 | > 100 µM (inactive) | > 100 µM (inactive) | > 100 µM (inactive) | – | > 100 µM (inactive) | – | – | – | –
CCOC(=O)[C@]12C3C=CC(C3)C1C(=O)C1OC12 (stereo partly specified) | > 100 µM (inactive) | > 100 µM (inactive) | > 100 µM (inactive) | > 100 µM (inactive) | > 100 µM (inactive) | – | – | – | –
CC(=O)N1CC2Nc3ccccc3C2CC1CO (stereo unspecified) | > 100 µM (inactive) | > 100 µM (inactive) | > 100 µM (inactive) | – | > 100 µM (inactive) | – | – | – | –
CN(C)CCCCN1CCc2c(n(C)c3ccccc23)C1=O | > 100 µM (inactive) | 60.4 µM (inactive) | – | > 100 µM (inactive) | > 66.7 µM (inactive) | 39.4 µM (inactive) | 23.4 µM (inactive) | 24.6 µM (inactive) | > 37.8 µM (inactive)
CC(C)N(C(=O)C12C3C4C1C1C2C3C41C(=O)N(C(C)C)C(C)C)C(C)C (stereo unspecified) | > 50 µM (inactive) | > 50 µM (inactive) | > 50 µM (inactive) | – | > 50 µM (inactive) | – | – | – | –
N#CC(C(=O)CCC(=O)Nc1cccc(C(F)(F)F)c1)c1ccc(Cl)cc1 (stereo unspecified) | > 100 µM (inactive) | > 100 µM (inactive) | > 100 µM (inactive) | > 100 µM (inactive) | > 100 µM (inactive) | – | – | – | –
